Reference: ChEMBL document CHEMBL3351395, “Podoimbricatin A, a cytotoxic diterpenoid with an unprecedented 6/6/5/6-fused tetracyclic ring system from the twigs and leaves of Podocarpus imbricatus” (Bioorg Med Chem Lett, 2014)

What was measured:
[1] = tested on: A549; test: Antiproliferative activity against human A549 cells by MTT assay; assay type: functional, cell-based
[2] = tested on: NCI-H292; test: Antiproliferative activity against human NCI-H292 cells by MTT assay; assay type: functional, cell-based

SMILES	IC50 [1]	IC50 [2]
CCC(C)C1NC(=O)C(NC(=O)/C=C/c2ccccc2)C(C(C)C)Oc2ccc(cc2)/C=C/NC1=O (stereo unspecified)	21.5 µM	17.8 µM
CC1(C)CCC[C@]2(C)[C@H]3C[C@H]4C(CO)=CCO[C@@H]4[C@H]3C[C@H](O)[C@@H]12	25.2 µM	19.1 µM
C=C1CC[C@@H]2[C@](C)(CCC[C@]2(C)C(=O)O)[C@H]1CC/C(C)=C/C(=O)O [AGATHIC ACID]	47.8 µM	20.3 µM
